This note sets out measurements from patent publication US10174036B2, “Substituted pyrazoles as JAK inhibitors” (WUXI FORTUNE PHARMACEUTICAL CO., LTD, priority 2015, dated 2019).

Read-outs that look alike come from different tables or passages of the source.

One may read the IC50 as the concentration at which inhibition is half-maximal.

What all share (assay type): biochemical
In one assay the target is T1, JAK2 (Homo sapiens, UniProt O60674).
T1 construct: purchased Life technology
Briefly: Test for in vitro activity of JAK2 kinase (LANCE Ultra ULight-JAK-1 peptide). How it is done: (§1) Test for In Vitro Activity of Jak1, Jak2, and Jak3 Kinase
(§2) Recombinant human […] of JAK1, JAK2 and JAK3 were purchased from Life technology. LANCE Ultra ULight™-JAK-1 (Tyr1023) peptide and LANCE Eu-W1024 Anti-phosphotyrosine (PT66) were purchased from PerkinElmer. Multimode ELISA, Envison(PerkinElmer) reader was used.
The reaction was carried out at room temperature for 60 min and the reaction system was 10 ul.
(§3) Determination for Reaction
(§4) 10 ul detection reagent was added to reaction plate, wherein the final concentration of LANCE Eu-W1024 Anti-phosphotyrosine (PT66) was 2 nM, the final concentration of EDTA was […], incubated at room temperature for 60 min, with Envison reader.
(§5) The reading was converted to inhibition ratio (%) by the following formula: the inhibition ratio (%)=([…])/(Max−Min)×100%.

The next assay addresses T2, JAK3 (Homo sapiens, UniProt P52333).
T2 construct: purchased Life technology
T2 sequence (P52333 1-1124): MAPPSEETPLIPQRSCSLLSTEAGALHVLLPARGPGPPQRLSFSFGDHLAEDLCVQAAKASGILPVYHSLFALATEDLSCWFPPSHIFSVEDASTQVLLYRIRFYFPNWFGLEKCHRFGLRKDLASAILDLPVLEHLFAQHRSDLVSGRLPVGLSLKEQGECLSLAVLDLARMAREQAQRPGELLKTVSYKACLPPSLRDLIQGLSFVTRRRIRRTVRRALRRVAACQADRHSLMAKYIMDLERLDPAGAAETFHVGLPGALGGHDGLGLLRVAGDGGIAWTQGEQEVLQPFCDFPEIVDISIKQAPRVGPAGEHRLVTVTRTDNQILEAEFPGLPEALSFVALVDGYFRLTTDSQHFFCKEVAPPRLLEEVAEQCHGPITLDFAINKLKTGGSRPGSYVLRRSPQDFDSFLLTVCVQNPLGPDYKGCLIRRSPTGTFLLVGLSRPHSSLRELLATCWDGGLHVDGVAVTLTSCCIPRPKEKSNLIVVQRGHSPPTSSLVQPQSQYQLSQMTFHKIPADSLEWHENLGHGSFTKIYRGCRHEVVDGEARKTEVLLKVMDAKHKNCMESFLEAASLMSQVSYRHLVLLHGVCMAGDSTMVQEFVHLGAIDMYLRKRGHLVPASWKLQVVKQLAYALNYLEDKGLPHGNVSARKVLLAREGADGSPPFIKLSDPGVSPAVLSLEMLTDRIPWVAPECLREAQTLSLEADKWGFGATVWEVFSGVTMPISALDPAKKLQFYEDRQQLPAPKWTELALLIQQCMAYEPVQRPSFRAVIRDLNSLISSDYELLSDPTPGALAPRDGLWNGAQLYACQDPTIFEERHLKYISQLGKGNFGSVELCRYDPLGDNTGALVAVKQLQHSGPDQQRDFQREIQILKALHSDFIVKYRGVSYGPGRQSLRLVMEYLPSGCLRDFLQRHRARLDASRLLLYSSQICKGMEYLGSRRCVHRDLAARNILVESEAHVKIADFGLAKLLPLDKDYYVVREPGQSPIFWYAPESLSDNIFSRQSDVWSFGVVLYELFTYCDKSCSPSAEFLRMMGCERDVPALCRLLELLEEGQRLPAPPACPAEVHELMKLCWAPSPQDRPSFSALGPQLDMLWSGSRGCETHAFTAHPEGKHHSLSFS
In words: Test for in vitro activity of JAK3 kinase (LANCE Ultra ULight-JAK-1 peptide). How it is done: as §1, §2
0.05 nM of JAK3 Protein kinase, 50 nM of LANCE Ultra ULight™-JAK-1(Tyr1023) peptide, 4 uM of ATP, 50 mM of HEPES (pH 7.5), 10 mM of MgCl2, 1 mM of EGTA, 2 mM of DTT, 0.01% BRIJ-35. […] The reaction was carried out at room temperature for 90 min and the reaction system was 10 ul.
as §3, §4, §5
(In general: Time-resolved FRET reads energy transfer from a long-lived donor to a nearby acceptor.)

A further assay concerns the target T3, JAK1 (Homo sapiens, UniProt P23458).
T3 construct: purchased Life technology
Briefly: Test for in vitro activity of JAK1 kinase (LANCE Ultra ULight-JAK-1 peptide). The conditions noted are these: selectivity ratio JAK1 versus JAK2; class symbol. How it is done:
as §1, §2
The reaction was carried out at room temperature for 90 min and the reaction system was 10 ul.
as §3, §4, §5

[1] abbreviates: recombinant human JAK2, 12 uM ATP, 60 min, class symbol.
The mark [2] stands for this setting: selectivity ratio JAK3 versus JAK2, class symbol.

T1 sequence (O60674 whole entry): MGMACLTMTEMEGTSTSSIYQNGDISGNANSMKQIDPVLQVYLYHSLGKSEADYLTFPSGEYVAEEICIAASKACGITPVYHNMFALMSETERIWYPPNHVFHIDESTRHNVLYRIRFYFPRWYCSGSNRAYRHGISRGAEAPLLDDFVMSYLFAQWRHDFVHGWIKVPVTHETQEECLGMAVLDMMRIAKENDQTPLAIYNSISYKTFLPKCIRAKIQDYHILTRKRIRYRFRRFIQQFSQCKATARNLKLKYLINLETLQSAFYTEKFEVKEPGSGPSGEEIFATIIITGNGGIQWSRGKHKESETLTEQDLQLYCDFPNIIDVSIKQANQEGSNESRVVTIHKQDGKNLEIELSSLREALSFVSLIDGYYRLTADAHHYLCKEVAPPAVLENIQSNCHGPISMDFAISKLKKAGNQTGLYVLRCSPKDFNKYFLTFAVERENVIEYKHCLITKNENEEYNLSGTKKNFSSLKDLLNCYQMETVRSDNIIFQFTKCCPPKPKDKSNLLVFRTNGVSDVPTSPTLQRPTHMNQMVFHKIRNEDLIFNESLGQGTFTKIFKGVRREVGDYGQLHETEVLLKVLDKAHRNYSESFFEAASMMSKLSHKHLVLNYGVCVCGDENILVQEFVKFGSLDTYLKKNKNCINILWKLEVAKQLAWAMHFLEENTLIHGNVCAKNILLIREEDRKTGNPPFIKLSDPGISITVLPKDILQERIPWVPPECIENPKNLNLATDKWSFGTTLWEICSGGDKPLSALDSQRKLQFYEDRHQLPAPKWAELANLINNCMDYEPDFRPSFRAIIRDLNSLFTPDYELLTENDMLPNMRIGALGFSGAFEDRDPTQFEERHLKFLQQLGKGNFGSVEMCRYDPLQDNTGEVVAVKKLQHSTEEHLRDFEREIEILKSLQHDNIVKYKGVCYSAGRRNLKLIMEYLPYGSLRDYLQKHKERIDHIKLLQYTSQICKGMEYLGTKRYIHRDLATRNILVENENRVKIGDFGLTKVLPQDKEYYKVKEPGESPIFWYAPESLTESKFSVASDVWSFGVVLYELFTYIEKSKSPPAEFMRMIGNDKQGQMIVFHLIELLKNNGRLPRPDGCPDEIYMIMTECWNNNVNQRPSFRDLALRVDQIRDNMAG
T3 sequence (P23458 whole entry): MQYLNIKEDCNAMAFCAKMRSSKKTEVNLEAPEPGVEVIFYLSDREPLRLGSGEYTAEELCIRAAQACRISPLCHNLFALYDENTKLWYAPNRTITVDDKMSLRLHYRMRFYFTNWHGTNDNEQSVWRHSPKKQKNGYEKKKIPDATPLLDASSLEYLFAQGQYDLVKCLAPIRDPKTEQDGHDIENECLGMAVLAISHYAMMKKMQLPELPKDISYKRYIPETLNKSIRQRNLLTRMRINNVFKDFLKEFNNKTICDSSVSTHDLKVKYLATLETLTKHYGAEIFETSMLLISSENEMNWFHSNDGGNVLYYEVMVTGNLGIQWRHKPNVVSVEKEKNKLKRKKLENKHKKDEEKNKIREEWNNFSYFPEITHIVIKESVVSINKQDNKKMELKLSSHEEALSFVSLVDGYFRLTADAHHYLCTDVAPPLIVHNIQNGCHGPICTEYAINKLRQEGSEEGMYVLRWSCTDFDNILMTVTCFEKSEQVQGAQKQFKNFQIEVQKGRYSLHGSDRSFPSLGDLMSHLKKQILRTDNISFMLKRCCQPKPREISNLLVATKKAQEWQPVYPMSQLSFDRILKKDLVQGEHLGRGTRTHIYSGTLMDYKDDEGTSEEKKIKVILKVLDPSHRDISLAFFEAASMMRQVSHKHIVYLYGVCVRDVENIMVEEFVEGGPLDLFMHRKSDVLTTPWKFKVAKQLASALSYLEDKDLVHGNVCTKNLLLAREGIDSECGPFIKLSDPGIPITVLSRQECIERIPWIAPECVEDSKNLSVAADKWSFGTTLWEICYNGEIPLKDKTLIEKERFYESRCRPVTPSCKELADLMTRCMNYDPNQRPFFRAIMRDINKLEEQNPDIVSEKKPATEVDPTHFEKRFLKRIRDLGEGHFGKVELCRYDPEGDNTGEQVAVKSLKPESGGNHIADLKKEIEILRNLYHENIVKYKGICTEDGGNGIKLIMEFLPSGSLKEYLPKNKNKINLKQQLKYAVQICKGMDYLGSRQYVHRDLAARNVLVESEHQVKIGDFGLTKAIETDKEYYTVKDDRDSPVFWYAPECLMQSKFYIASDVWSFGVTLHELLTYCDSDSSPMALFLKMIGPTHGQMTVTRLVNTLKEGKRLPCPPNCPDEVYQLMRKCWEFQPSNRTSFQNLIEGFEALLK

Turning to `CCS(=O)(=O)N1CC(CC#N)(n2cc(-c3cccc4nc(NC(=O)C5CC5)nn34)cn2)C1` [WX16, N-(5-(1-(3-(cyanomethyl)-1-(ethylsulfony)azetidine-3-yl)-1H-pyrazole-4-yl]-[1,2,4]triazolo[1,5-a]pyridin-2-yl)cyclopropyl carboxamide], the IC50 at JAK2 (setting [1]) was under 10 nM. In addition, the “JAK3/JAK2 (times)” value at JAK3 (setting [2]) is recorded as “F3 (10 < F3 ≤ 25)”. Moreover, on JAK1, the “JAK1/JAK2 (times)” value is listed as “F1 (1 ≤ F1 ≤ 5)”.

`N#CCC1(n2cc(-c3cccc4ncnn34)cn2)CN(S(=O)(=O)C(F)(F)F)C1` [WX17, 2-[3-[4-([1,2,4]triazolo[1,5-a]pyridin-5-)pyrazole-1-]-1-(trifluoromethylsulfonyl)azetidine-3-]acetonitrile]: the IC50 at JAK2 (setting [1]) is 10 to 100 nM. Also, the “JAK3/JAK2 (times)” value at JAK3 (setting [2]) is reported as “F3 (10 < F3 ≤ 25)”. On JAK1, the “JAK1/JAK2 (times)” value was “F1 (1 ≤ F1 ≤ 5)”.

Turning to `N#CCC1(n2cc(-c3cccc4nc(N)nn34)cn2)CN(S(=O)(=O)C(F)(F)F)C1` [WX18], the IC50 on JAK2 (setting [1]) was under 10 nM. The “JAK3/JAK2 (times)” value on JAK3 (setting [2]) was “F3 (10 < F3 ≤ 25)”. In addition, the “JAK1/JAK2 (times)” value at JAK1 is listed as “F1 (1 ≤ F1 ≤ 5)”.

Turning to `CS(=O)(=O)N1CC(CC#N)(n2cc(-c3cccc4nc(N)nn34)cn2)C1` [WX19, 2-(3-(4-(2-amino-[1,2,4]triazolo[1,5-a]pyridinyl)-1H-pyrazolyl)-1-(methylsulfonyl)cyclobutane)acetonitrile], the concentration for half-maximal inhibition (IC50) at JAK2 (setting [1]) was 10 to 100 nM. For the same compound, the “JAK3/JAK2 (times)” value at JAK3 (setting [2]) is recorded as “F3 (10 < F3 ≤ 25)”. Moreover, the “JAK1/JAK2 (times)” value on JAK1 is reported as “F1 (1 ≤ F1 ≤ 5)”.

On to `CCS(=O)(=O)N1CC(CC#N)(n2cc(-c3cccn4nc(NC(=O)C5CC5)nc34)cn2)C1` [WX20, N-(8-(1-(3-(cyanomethyl)-1-(ethylsulfonyl)azetidine-3-yl)-1H-pyrazole-4-yl)-[1,2,4]triazolo[1,5-a]pyridin-2-yl) cyclopropanecarboxamide], for which, at JAK2 (setting [1]), the half-inhibitory concentration (IC50) is under 10 nM. Further, the “JAK3/JAK2 (times)” value on JAK3 (setting [2]) is recorded as “F4 (25 < F4 ≤ 100)”. Further, at JAK1, the “JAK1/JAK2 (times)” value is given as “F1 (1 ≤ F1 ≤ 5)”.

Consider `CCS(=O)(=O)N1CC(CC#N)(n2cc(-c3cccn4nc(NC(=O)C(F)(F)F)nc34)cn2)C1` [WX22, N-(8-(1-(3-(cyanomethyl)-1-(ethylsulfonyl)azetidine-3-yl)-1H-pyrazole-4-yl)-[1,2,4]triazolo[1,5-a]pyridin-2-yl)-2,2,2-trifluoroacetamide], for which the IC50 at JAK2 (setting [1]) fell in the range of 100 to 1000 nM. At JAK3 (setting [2]), the “JAK3/JAK2 (times)” value is listed as “F3 (10 < F3 ≤ 25)”. Moreover, at JAK1, the “JAK1/JAK2 (times)” value is “F1 (1 ≤ F1 ≤ 5)”.

With `N#CCC1(n2cc(-c3cccn4nc(NC(=O)C(F)(F)F)nc34)cn2)CN(S(=O)(=O)C2CC2)C1` [WX23], the IC50 on JAK2 (setting [1]) lay within 100 to 1000 nM. Further, the “JAK3/JAK2 (times)” value on JAK3 (setting [2]) is reported as “F3 (10 < F3 ≤ 25)”. On JAK1, the “JAK1/JAK2 (times)” value is “F1 (1 ≤ F1 ≤ 5)”.

On to `COCC(=O)Nc1nc2ccnc(-c3cnn(C4(CC#N)CN(S(=O)(=O)C(F)(F)F)C4)c3)n2n1` [WX24, N-(5-(1-(3-(cyanomethyl)-1-((trifluoromethyl)sulfonyl)azetidine-3-yl)-1H-pyrazole-4-yl)-[1,2,4]triazolo[1,5-c]pyridin-2-yl)-2-methoxyacetamide], for which the IC50 at JAK2 (setting [1]) was 10 to 100 nM. Besides, the “JAK3/JAK2 (times)” value on JAK3 (setting [2]) is reported as “F4 (25 < F4 ≤ 100)”. For the same compound, the “JAK1/JAK2 (times)” value on JAK1 is on record as “F3 (10 < F3 ≤ 25)”.

Take `CS(=O)(=O)N1CC(CC#N)(n2cc(-c3nccc4nc(NC(=O)CC#N)nn34)cn2)C1` [WX26]: on JAK2 (setting [1]), the IC50 is 100 to 1000 nM. Further, the “JAK3/JAK2 (times)” value on JAK3 (setting [2]) was “F3 (10 < F3 ≤ 25)”. The “JAK1/JAK2 (times)” value at JAK1 is “F3 (10 < F3 ≤ 25)”.

For `CS(=O)(=O)N1CC(CC#N)(n2cc(-c3cccc4nc(N)sc34)cn2)C1` [WX27, 2-(3-(4-(2-aminobenzo[d]thiazole-7-yl)-1H-pyrazole-1-yl)-(methylsulfonyl)azetidine-3-yl) methyl cyanide], the IC50 on JAK2 was under 10 nM. Moreover, the “JAK3/JAK2 (times)” value at JAK3 was “F2 (key: 1 ≤ F1 ≤ 5; 5 < F2 ≤ 10; 10 < F3 ≤ 25; 25 < F4 ≤ 100)”. At JAK1, the “JAK1/JAK2 (times)” value was “F3 (10 < F3 ≤ 25)”.

`CS(=O)(=O)N1CC(CC#N)(n2cc(-c3cccc4nc(NC(=O)C5CC5)sc34)cn2)C1` [WX28, N-(7-(1-(3-(cyanomethyl)-1-(methylsulfonyl)azetidin-3-yl)-1H-pyrazole-4-yl)benzo[d]thiazole-2-yl) cyclopropanecarboxamide]: the half-maximal inhibitory concentration (IC50) at JAK2 (setting [1]) is under 10 nM. Also, at JAK3 (setting [2]), the “JAK3/JAK2 (times)” value is reported as “F4 (25 < F4 ≤ 100)”. Further, the “JAK1/JAK2 (times)” value at JAK1 is on record as “F3 (10 < F3 ≤ 25)”.

Turning to `CS(=O)(=O)N1CC(CC#N)(n2cc(-c3cccc4nc(N)oc34)cn2)C1` [WX29, 2-(3-(4-(2-aminobenzo[d]oxazole-7-yl)-1H-pyrazole-1-yl)-1-(methylsulfonyl)azetidin-3-yl)acetonitrile], the IC50 at JAK2 (setting [1]) is under 10 nM. At JAK3 (setting [2]), the “JAK3/JAK2 (times)” value is “F4 (25 < F4 ≤ 100)”. Also, the “JAK1/JAK2 (times)” value at JAK1 is given as “F3 (10 < F3 ≤ 25)”.

For the compound `CS(=O)(=O)N1CC(CC#N)(n2cc(-c3cccc4nc(NC(=O)C5CC5)oc34)cn2)C1` [WX30, N-(7-(1-(3-(cyanomethyl)-1-(methylsulfonyl)azetidin-3-yl)-1H-pyrazole-4-yl)benzo[d]oxazole-2-yl) cyclopropanecarboxamide], the half-maximal inhibitory concentration (IC50) at JAK2 (setting [1]) is under 10 nM. Besides, the “JAK3/JAK2 (times)” value at JAK3 (setting [2]) was “F4 (25 < F4 ≤ 100)”. Also, the “JAK1/JAK2 (times)” value on JAK1 was “F2 (5 < F2 ≤ 10)”.

`CCS(=O)(=O)N1CC(CC#N)(n2cc(-c3nccn4nc(NC(=O)C5CC5)nc34)cn2)C1` [WX31, N-[8-[1-[3-(cyanomethyl)-1-ethylsulfonylazetidin-3-yl]pyrazole-4-yl)-[1,2,4]triazolo[1,5-a]pyrazine-2-yl] cyclopropanecarboxamide]: the IC50 on JAK2 (setting [1]) lay within 100 to 1000 nM. Further, the “JAK3/JAK2 (times)” value at JAK3 (setting [2]) is on record as “F3 (10 < F3 ≤ 25)”. For the same compound, the “JAK1/JAK2 (times)” value at JAK1 is reported as “F2 (5 < F2 ≤ 10)”.

With `N#CCC1(n2cc(-c3nccc4nc(NC(=O)C5CC(F)(F)C5)nn34)cn2)CN(S(=O)(=O)C(F)(F)F)C1` [WX32, N-[5-[1-[3-(cyanomethyl)-1-(trifluoromethylsulfonyl)azetidin-3-yl]pyrazole-4-yl]-[1,2,4]triazolo[1,5-c]pyrimidin-2-yl]-3,3-difluoro-cyclobutanecarboxamide], the IC50 at JAK2 (setting [1]) was in the range of 100 to 1000 nM. On JAK3 (setting [2]), the “JAK3/JAK2 (times)” value is given as “F3 (10 < F3 ≤ 25)”. Besides, the “JAK1/JAK2 (times)” value at JAK1 is “F2 (5 < F2 ≤ 10)”.

As to `CN(C)Cc1cc(C(=O)N2CCC(N3CC(CC#N)(n4cc(-c5cccc6nc(NC(=O)C7CC7)nn56)cn4)C3)CC2)nc(C(F)(F)F)n1` [WX33], the IC50 at JAK2 (setting [1]) was 10 to 100 nM. Further, on JAK3 (setting [2]), the “JAK3/JAK2 (times)” value is “F3 (10 < F3 ≤ 25)”. The “JAK1/JAK2 (times)” value at JAK1 is listed as “F1 (1 ≤ F1 ≤ 5)”.

As for “N-(5-(1-(3-(cyanomethyl)-1-((methylsulfonyl)azetidine-3-yl)-1H-pyrazole-4-yl)-[1,2,4]triazolo[1,5-c]pyridin-2-yl)-2-methoxyacetamide [WX25]”, the IC50 at JAK2 (setting [1]) was in the range of 100 to 1000 nM. Besides, the “JAK3/JAK2 (times)” value on JAK3 (setting [2]) is given as “F2 (5 < F2 ≤ 10)”. Moreover, the “JAK1/JAK2 (times)” value on JAK1 is listed as “F3 (10 < F3 ≤ 25)”.
